The numbers were not newly measured in EP2742940A1, “Salts of aza-bicyclo-di-aryl ethers for adminstration once daily, twice daily or thrice daily” (IP Gesellschaft für Management mbH, priority 2012, dated 2014), which cites them from elsewhere.

Where “and” joins values, the source holds several entries; their conditions need not be identical. Equal values may be shown once. Read-outs that look alike come from different tables or passages of the source. A value given as a limit tells only on which side of the number the result lay.

One data set has as its system P-Erk. The note with it: A375 cells, P-Erk In-Cell-Western, 3 hrs treatment.
For data set [1] the following is noted: rat; for %F: p.o. (3 mg/kg); for PK-parameters compared to Example 1: one-way analysis of variance.
The test system of another data set is BRAF-MEK-ERK cascade. The settings on record: BRAF-MEK-ERK cascade assay, mean ± SEM, n=3.
Another data set has as its system A375 cells. The note with it: XTT, three days after compound addition. On the technique in general: Formazan colour is commonly taken as a measure of viable cells.
On the set-up of data set [2]: Initial water content / Hygroscopy @ 85%RH: unit not given here. The settings on record: for Initial water content: Example 7 comparison of salt forms; for moisture gain: at 85% RH.
The conditions of data set [3]: dogs (N=3), 1.4 µmol/kg p.o.
For another data set, the system named is DUSP6. The note with it: A375 tumor bearing athymic-nude rats, single oral dose, at 12h and 24h (p=0.003 and p=0.006), two-way analysis of variance.
For data set [4] the following is noted: at 65°C.
The mark [5] stands for this setting: male Wistar rats, oral 10 mg/kg, Mean All (n=8).
Where [6] appears, read: male Wistar rats, oral 10 mg/kg, Median [range].
The mark [7] stands for this setting: male Wistar rats, oral 10 mg/kg, individual rats 01-08, listed as mono-fumarate, 10 mg/kg.

As usually defined, the EC50 is the concentration that produces a half-maximal response. For orientation: IC50 means the concentration at which inhibition is half-maximal. As usually defined, the GI50 is the concentration at which growth is held to half of that of the control. As for `O=S(=O)(Nc1c(Nc2ccc(I)cc2F)c(F)c(F)c2ccoc12)C1(CC(O)CO)CC1` (racemic) [Example 1, N-(4,5-difluoro-6-((2-fluoro-4-iodophenyl)amino)benzofuran-7-yl)-1-(2,3-dihydroxypropyl)cyclopropane-1-sulfonamide], the EC50 in the data set on P-Erk was 12.2 nM. The “%F” value in data set [1] is given as 87%. The IC50 with BRAF-MEK-ERK cascade was 2.1 ± 0.58 nM. Also, in the data set with A375 cells, the concentration for 50% growth inhibition (GI50) is 17.6 nM.
The term Cmax denotes the maximum level reached in the sampled fluid or tissue. In general, Tmax refers to the time at which the peak concentration occurs. `Cc1ccc(-c2ccc(O[C@H]3CN4CCC3CC4)cn2)cc1.O=C(O)/C=C/C(=O)O` [Compound B, fumarate salt of (R)-3-(6-(4-methylphenyl)-pyridin-3-yloxy)-1-aza-bicyclo[2.2.2]octane]: in data set [2], the “Hygroscopy @ 85%RH” value is 0.5, the Initial water content is given as under 0.5 and the moisture gain is given as 0.5%. Besides, the “Plasma (pmoles/ml±SD)” value in [3] (0.5 hour) is 49.4 ± 21.9 pmol/mL. In data set [3] (1 hour), the “Plasma (pmoles/ml±SD)” value was 67.6 ± 22.6 pmol/mL. For the same compound, in data set [3] (2 hour), the “Plasma (pmoles/ml±SD)” value is 75.2 ± 36.8 pmol/mL. Further, the “Plasma (pmoles/ml±SD)” value in [3] (4 hour) was 27.5 ± 13.3 pmol/mL. The “Plasma (pmoles/ml±SD)” value in data set [3] (8 hour) was 8.1 ± 3.0 pmol/mL. Further, in data set [3] (24 hour), the “Plasma (pmoles/ml±SD)” value was 0.8 ± 0.7 pmol/mL. The “Plasma (pmoles/ml±SD)” value in data set [3] (fumarate salt form, 0.25 hour) is 14.7 ± 1.1 pmol/mL. In addition, the “T1/2” value (male Wistar rats, oral 10 mg/kg, Mean All) is listed as 3.76 h. In addition, under setting [5], the “AUClast” value was 249 ng·h/mL, the “AUClast/Dose (h·ng/mL)/(mg/kg)” value is given as 25.4 (h·ng/mL)/(mg/kg), the “Cmax” value was 161 ng/mL and the “Cmax/Dose (ng/mL)/(mg/kg)” value is 16.5 (ng/mL)/(mg/kg). For the same compound, under setting [5], the “Concentration in plasma, Time (h) 0.25” value is 149 ng/mL; the “Concentration in plasma, Time (h) 0.5” value was 132 ng/mL; the “Concentration in plasma, Time (h) 1” value is 77.4 ng/mL; the “Concentration in plasma, Time (h) 2” value is 38.9 ng/mL. For the same compound, under setting [5], the “Concentration in plasma, Time (h) 3” value is 19.5 ng/mL; the “Concentration in plasma, Time (h) 4” value is 10.6 ng/mL; the “Concentration in plasma, Time (h) 6” value is 5.10 ng/mL; the “Concentration in plasma, Time (h) 8” value was 2.54 ng/mL. In addition, the “Concentration in plasma, Time (h) 24” value under setting [5] was 0320 ng/mL. Further, under setting [6], the “Tlast” value is recorded as 24.0 h and the “Tmax” value was 0.25 h. Further, under setting [7], the “AUClast” value was 202 ng·h/mL and 259 ng·h/mL and 212 ng·h/mL and 188 ng·h/mL and 269 ng·h/mL and 292 ng·h/mL and 298 ng·h/mL and 272 ng·h/mL; the “AUClast/Dose (h·ng/mL)/(mg/kg)” value is 20.8 (h·ng/mL)/(mg/kg) and 26.3 (h·ng/mL)/(mg/kg) and 21.4 (h·ng/mL)/(mg/kg) and 192 (h·ng/mL)/(mg/kg) and 28.0 (h·ng/mL)/(mg/kg) and 30.1 (h·ng/mL)/(mg/kg) and 29.6 (h·ng/mL)/(mg/kg) and 27.9 (h·ng/mL)/(mg/kg); the peak concentration (Cmax) is 167 ng/mL and 162 ng/mL and 78.4 ng/mL and 99.7 ng/mL and 242 ng/mL and 204 ng/mL and 184 ng/mL and 153 ng/mL; the “Cmax/Dose (ng/mL)/(mg/kg)” value was 17.2 (ng/mL)/(mg/kg) and 16.4 (ng/mL)/(mg/kg) and 7.88 (ng/mL)/(mg/kg) and 102 (ng/mL)/(mg/kg) and 25.2 (ng/mL)/(mg/kg) and 21.1 (ng/mL)/(mg/kg) and 18.3 (ng/mL)/(mg/kg) and 15.7 (ng/mL)/(mg/kg). Under setting [7], the “Concentration in plasma, Time (h) 0.25” value is 167 ng/mL and 162 ng/mL and 77.8 ng/mL and 890 ng/mL and 242 ng/mL and 204 ng/mL and 93.3 ng/mL and 153 ng/mL; the “Concentration in plasma, Time (h) 0.5” value was 104 ng/mL and 130 ng/mL and 784 ng/mL and 99.7 ng/mL and 143 ng/mL and 179 ng/mL and 184 ng/mL and 138 ng/mL; the “Concentration in plasma, Time (h) 1” value was 67.1 ng/mL and 88.8 ng/mL and 41.3 ng/mL and 62.8 ng/mL and 83.2 ng/mL and 80.8 ng/mL and 101 ng/mL and 94.2 ng/mL; the “Concentration in plasma, Time (h) 2” value is 27.4 ng/mL and 39.2 ng/mL and 378 ng/mL and 24.6 ng/mL and 47.1 ng/mL and 37.6 ng/mL and 54.8 ng/mL and 42.6 ng/mL. Also, under setting [7], the “Concentration in plasma, Time (h) 3” value is 12.4 ng/mL and 17.7 ng/mL and 25.3 ng/mL and 11.7 ng/mL and 19.6 ng/mL and 20.6 ng/mL and 25.1 ng/mL and 23.2 ng/mL; the “Concentration in plasma, Time (h) 4” value is 906 ng/mL and 10.6 ng/mL and 13.3 ng/mL and 5.90 ng/mL and 9.71 ng/mL and 11.8 ng/mL and 13.0 ng/mL and 11.1 ng/mL; the “Concentration in plasma, Time (h) 6” value was 749 ng/mL and 3.47 ng/mL and 7.63 ng/mL and 5.79 ng/mL and 4.29 ng/mL and 4.24 ng/mL and 4.05 ng/mL and 3.87 ng/mL; the “Concentration in plasma, Time (h) 8” value is 291 ng/mL and 2.35 ng/mL and 3.62 ng/mL and 2.62 ng/mL and 2.46 ng/mL and 1.94 ng/mL and 238 ng/mL and 207 ng/mL. For the same compound, under setting [7], the “T1/2” value was 2.44 h and 5.02 h and 3.62 h and 3.71 h and 2.02 h and 3.97 h and 5.51 h; the “Tlast” value was 8.0 h (2×) and 24.0 h (6×); the time to peak (Tmax) is 0.25 h (3×) and 025 h (2×) and 0.50 h (3×). Under “rats, acute oral dosing of 10 mg/kg”, the AUClast is listed as 249+-42 h ng/ml. Moreover, the “Cmax of the free form in plasma” value (rats, acute oral dosing of 10 mg/kg (relative to free form)) was 161+-53 ng/ml.
`O=S(=O)(Nc1c(Nc2ccc(I)cc2F)c(F)c(F)c2ccoc12)C1(C[C@H](O)CO)CC1` [Example 1A, (S)-N-(4,5-difluoro-6-((2-fluoro-4-iodophenyl)amino)benzofuran-7-yl)-1-(2,3-dihydroxypropyl)cyclopropane-1-sulfonamide]: the EC50 in the data set on P-Erk was 6.4 nM. Also, in [1], the “PK-parameters compared to Example 1” value is “improved PK-parameters” and the “%F” value is 132%. The “lowering levels of DUSP-6 in tumor” value in the data set on DUSP6 is listed as “significantly more effective than Example- IB”. The IC50 in the data set with BRAF-MEK-ERK cascade is 2 ± 0.25 nM. Further, in the data set with A375 cells, the GI50 is 13.4 nM.
Take `O=S(=O)(Nc1c(Nc2ccc(I)cc2F)c(F)c(F)c2ccoc12)C1(C[C@@H](O)CO)CC1` [Example 1B, (R)-N-(4,5-difluoro-6-((2-fluoro-4-iodophenyl)amino)benzofuran-7-yl)-1-(2,3-dihydroxypropyl)cyclopropane-1-sulfonamide]: the EC50 in the data set on P-Erk was 15.6 nM. In addition, in data set [1], the “PK-parameters compared to Example 1” value is “improved PK-parameters” and the “%F” value is on record as 126%. The 50% growth inhibitory concentration (GI50) in the data set with A375 cells is 29.6 nM.
Take `Cc1ccc(-c2ccc(O[C@H]3CN4CCC3CC4)cn2)cc1.Cl` [Hydrochloride, Form A, chloride salt (hydrochloride) of (R)-3-(6-(4-methylphenyl)-pyridin-3-yloxy)-1-aza-bicyclo[2.2.2]octane]: in data set [2], the “Hygroscopy @ 85%RH” value is recorded as “∼5”, the Initial water content entry is “∼5” and the moisture gain result is “about 5%”.
As for `Cc1ccc(-c2ccc(O[C@H]3CN4CCC3CC4)cn2)cc1.O=C(O)/C=C\C(=O)O` [Maleate, maleate salt of (R)-3-(6-(4-methylphenyl)-pyridin-3-yloxy)-1-aza-bicyclo[2.2.2]octane], in data set [2], the “Hygroscopy @ 85%RH” value is given as 0.3, the Initial water content is given as under 0.1 and the moisture gain is reported as 0.3%.
For `Cc1ccc(-c2ccc(O[C@H]3CN4CCC3CC4)cn2)cc1.O=C(O)CC(=O)O` [Malonate, malonate salt of (R)-3-(6-(4-methylphenyl)-pyridin-3-yloxy)-1-aza-bicyclo[2.2.2]octane], in data set [2], the “Hygroscopy @ 85%RH” value is 1.3, the Initial water content entry is given as “∼0” and the moisture gain was 1.3%.
Consider `Cc1ccc(-c2ccc(O[C@H]3CN4CCC3CC4)cn2)cc1.O=P(O)(O)O` [Phosphate, Form A, phosphate salt of (R)-3-(6-(4-methylphenyl)-pyridin-3-yloxy)-1-aza-bicyclo[2.2.2]octane], for which, in data set [2], the “Hygroscopy @ 85%RH” value is listed as 0.2, the Initial water content result is on record as “∼0.5” and the moisture gain is on record as 0.2%.
For `Cc1ccc(-c2ccc(O[C@H]3CN4CCC3CC4)cn2)cc1.O=C(O)CCC(=O)O` [Succinate, succinate salt of (R)-3-(6-(4-methylphenyl)-pyridin-3-yloxy)-1-aza-bicyclo[2.2.2]octane], in data set [2], the “Hygroscopy @ 85%RH” value is 0.3, the Initial water content entry was “∼4.5” and the moisture gain was 0.3%.
Regarding `Cc1cn(-c2cc(NC(=O)c3ccc(C)c(Nc4nccc(-c5cccnc5)n4)c3)cc(C(F)(F)F)c2)cn1` [nilotinib, 4-methyl-3-[[4-(3-pyridinyl)-2-pyrimidinyl]amino]-N-[5-(4-methyl-1 H-imidazol-1-yl)-3-(trifluoromethyl)phenyl] benzamide], in data set [4], the “solubility in lactic acid” value is over 600 mg/mL.
